In this assay the target is T1, full length active recombinant SYK enzyme (Homo sapiens, UniProt P43405).
T1 construct: full length active recombinant SYK enzyme (Millipore, Calif.); purchased Millipore
The assay can be described thus: Inhibition of Syk tyrosine phosphorylation activity (LANCE TR-FRET kinase assay). The class given is biochemical. The following applies: 1 nM active SYK enzyme, 550 nM SYK-substrate, 100 μM ATP, 1 hour at room temperature. A general note: TR-FRET usually uses a lanthanide donor and a delayed reading to cut background.

The text below walks through data of US9040530B2, “1,2,4-triazine-6-carboxamide kinase inhibitors” (Portola Pharmaceuticals, Inc., priority 2012, dated 2015).

Usually IC50 stands for the concentration that gives 50% inhibition. For `Cn1ccc2cc(Nc3nc(N[C@H]4CN[C@@H](CO)C4)nnc3C(N)=O)cnc21` [Example 153, 3-(((3R,5R)-5-(hydroxymethyl)pyrrolidin-3-yl)amino)-5-((1-methyl-1H-pyrrolo[2,3-b]pyridin-5-yl)amino)-1,2,4-triazine-6-carboxamide], the IC50 was in the range of 10 to 100 nM. Then `Cn1ccc2cc(Nc3nc(N[C@@H]4CCCC[C@@H]4N)nnc3C(N)=O)cnc21` [Example 154, 3-(((1R,2S)-2-aminocyclohexyl)amino)-5-((1-methyl-1H-pyrrolo[2,3-b]pyridin-5-yl)amino)-1,2,4-triazine-6-carboxamide], with 1 to 10 nM. Then `NC(=O)c1nnc(N[C@@H]2CCCC[C@@H]2N)nc1Nc1cnc2cc(F)ccc2c1` [Example 158, 3-(((1R,2S)-2-aminocyclohexyl)amino)-5-((7-fluoroquinolin-3-yl)amino)-1,2,4-triazine-6-carboxamide], with 1 to 10 nM; and `CC[C@@H](Nc1nnc(C(N)=O)c(Nc2cnc3cc(F)ccc3c2)n1)C(N)=O` [Example 159, (R)-3-((1-amino-1-oxobutan-2-yl)amino)-5-((7-fluoroquinolin-3-yl)amino)-1,2,4-triazine-6-carboxamide], with 10 to 100 nM; and `NC(=O)c1nnc(N[C@@H]2CCCC[C@@H]2N)nc1Nc1cnc2c(F)cccc2c1` [Example 160, 3-(((1R,2S)-2-aminocyclohexyl)amino)-5-((8-fluoroquinolin-3-yl)amino)-1,2,4-triazine-6-carboxamide], with 1 to 10 nM. As to `CN(C)c1ccc(Nc2nc(N[C@@H]3CCCC[C@@H]3N)nnc2C(N)=O)cc1F` [Example 161, 3-(((1R,2S)-2-aminocyclohexyl)amino)-5-((4-(dimethylamino)-3-fluorophenyl)amino)-1,2,4-triazine-6-carboxamide], the IC50 lay in the range of 10 to 100 nM. As for `CC[C@@H](Nc1nnc(C(N)=O)c(Nc2ccc(N(C)C)c(F)c2)n1)C(N)=O` [Example 162, (R)-3-((1-amino-1-oxobutan-2-yl)amino)-5-((4-(dimethylamino)-3-fluorophenyl)amino)-1,2,4-triazine-6-carboxamide], the IC50 was 10 to 100 nM. Then `CC[C@@H](Nc1nnc(C(N)=O)c(Nc2ccc3ccn(C)c3c2)n1)C(N)=O` [Example 163, (R)-3-((1-amino-1-oxobutan-2-yl)amino)-5-((1-methyl-1H-indol-6-yl)amino)-1,2,4-triazine-6-carboxamide], with 10 to 100 nM.

Regarding `C[C@@H](Nc1nnc(C(N)=O)c(Nc2ccc3ccn(C)c3c2)n1)C(N)=O` [Example 164, (R)-3-((1-amino-1-oxopropan-2-yl)amino)-5-((1-methyl-1H-indol-6-yl)amino)-1,2,4-triazine-6-carboxamide], the IC50 was in the range of 10 to 100 nM.

Take `Cn1ccc2ccc(Nc3nc(N[C@@H]4CCOC[C@@H]4N)nnc3C(N)=O)cc21` [Example 165, 3-(((3R,4R)-3-aminotetrahydro-2H-pyran-4-yl)amino)-5-((1-methyl-1H-indol-6-yl)amino)-1,2,4-triazine-6-carboxamide]: the IC50 lay in the range of 1 to 10 nM. Then `Cn1ccc2ccc(Nc3nc(N[C@@H]4CCCC(F)(F)[C@@H]4N)nnc3C(N)=O)cc21` [Example 166, 3-(((1R,2R)-2-amino-3,3-difluorocyclohexyl)amino)-5-((1-methyl-1H-indol-6-yl)amino)-1,2,4-triazine-6-carboxamide], with 10 to 100 nM; and `Cc1ccc(Nc2nc(N[C@@H]3CCCC(F)(F)[C@@H]3N)nnc2C(N)=O)cc1` [Example 167, 3-(((1R,2R)-2-amino-3,3-difluorocyclohexyl)amino)-5-(p-tolylamino)-1,2,4-triazine-6-carboxamide], with 10 to 100 nM; and `NC(=O)c1nnc(N[C@@H]2CCCC[C@@H]2N)nc1Nc1ccc(C(F)(F)F)cc1` [Example 168, 3-(((1R,2S)-2-aminocyclohexyl)amino)-5-((4-(trifluoromethyl)phenyl)amino)-1,2,4-triazine-6-carboxamide], with 10 to 100 nM. For the compound `CC[C@@H](Nc1nnc(C(N)=O)c(Nc2ccc(C(F)(F)F)cc2)n1)C(N)=O` [Example 169, (R)-3-((1-amino-1-oxobutan-2-yl)amino)-5-((4-(trifluoromethyl)phenyl)amino)-1,2,4-triazine-6-carboxamide], the IC50 lay in the range of 10 to 100 nM. Then `NC(=O)c1nnc(N[C@@H]2CCCC[C@@H]2N)nc1Nc1cccc(C(F)(F)F)c1` [Example 170, 3-(((1R,2S)-2-aminocyclohexyl)amino)-5-((3-(trifluoromethyl)phenyl)amino)-1,2,4-triazine-6-carboxamide], with 1 to 10 nM; and `CC[C@@H](Nc1nnc(C(N)=O)c(Nc2cccc(C(F)(F)F)c2)n1)C(N)=O` [Example 171, (R)-3-((1-amino-1-oxobutan-2-yl)amino)-5-((3-(trifluoromethyl)phenyl)amino)-1,2,4-triazine-6-carboxamide], with 100 to 1000 nM. Then `Cn1cc(C#N)c2ccc(Nc3nc(N[C@@H]4CCOC[C@@H]4N)nnc3C(N)=O)cc21` [Example 172, 3-(((3R,4R)-3-aminotetrahydro-2H-pyran-4-yl)amino)-5-((3-cyano-1-methyl-1H-indol-6-yl)amino)-1,2,4-triazine-6-carboxamide], with 1 to 10 nM; and `Cn1cc(C#N)c2ccc(Nc3nc(N[C@@H]4CCCC(F)(F)[C@@H]4N)nnc3C(N)=O)cc21` [Example 173, 3-(((1R,2R)-2-amino-3,3-difluorocyclohexyl)amino)-5-((3-cyano-1-methyl-1H-indol-6-yl)amino)-1,2,4-triazine-6-carboxamide], with 10 to 100 nM; and `CC[C@@H](Nc1nnc(C(N)=O)c(Nc2ccc(OC)c(Cl)c2)n1)C(N)=O` [Example 174, (R)-3-((1-amino-1-oxobutan-2-yl)amino)-5-((3-chloro-4-methoxyphenyl)amino)-1,2,4-triazine-6-carboxamide], with 10 to 100 nM.

On to `CN(C)c1ccc(Nc2nc(N[C@@H]3CCCC[C@@H]3N)nnc2C(N)=O)cc1Cl` [Example 175, 3-(((1R,2S)-2-aminocyclohexyl)amino)-5-((3-chloro-4-(dimethylamino)phenyl)amino)-1,2,4-triazine-6-carboxamide], for which the IC50 lay in the range of 1 to 10 nM. Then `NC(=O)c1nnc(N[C@@H]2CCCC[C@@H]2N)nc1Nc1cc(Cl)c2ncccc2c1` [Example 176, 3-(((1R,2S)-2-aminocyclohexyl)amino)-5-((8-chloroquinolin-6-yl)amino)-1,2,4-triazine-6-carboxamide], with less than 1 nM; and `CC[C@@H](Nc1nnc(C(N)=O)c(Nc2cc(Cl)c3ncccc3c2)n1)C(N)=O` [Example 177, (R)-3-((1-amino-1-oxobutan-2-yl)amino)-5-((8-chloroquinolin-6-yl)amino)-1,2,4-triazine-6-carboxamide], with 1 to 10 nM. As to `Cn1cc(C#N)c2ccc(Nc3nc(N[C@H](CC4CC4)C(N)=O)nnc3C(N)=O)cc21` [Example 178, (R)-3-((1-amino-3-cyclopropyl-1-oxopropan-2-yl)amino)-5-((3-cyano-1-methyl-1H-indol-6-yl)amino)-1,2,4-triazine-6-carboxamide], the IC50 is 1 to 10 nM. In the case of `CC[C@@H](Nc1nnc(C(N)=O)c(Nc2ccc3cn(C)nc3c2)n1)C(N)=O` [Example 179, (R)-3-((1-amino-1-oxobutan-2-yl)amino)-5-((2-methyl-2H-indazol-6-yl)amino)-1,2,4-triazine-6-carboxamide], the IC50 is 1 to 10 nM.

`CC[C@@H](Nc1nnc(C(N)=O)c(Nc2ccc3cnn(C)c3c2)n1)C(N)=O` [Example 180, (R)-3-((1-amino-1-oxobutan-2-yl)amino)-5-((1-methyl-1H-indazol-6-yl)amino)-1,2,4-triazine-6-carboxamide]: the 50% inhibitory concentration (IC50) was in the range of 1 to 10 nM.

With `Cn1cc2ccc(Nc3nc(N[C@@H]4CCCC[C@@H]4N)nnc3C(N)=O)cc2n1` [Example 181, 3-(((1R,2S)-2-aminocyclohexyl)amino)-5-((2-methyl-2H-indazol-6-yl)amino)-1,2,4-triazine-6-carboxamide], the IC50 lay in the range of 1 to 10 nM.

Consider `Cn1ncc2ccc(Nc3nc(N[C@@H]4CCCC[C@@H]4N)nnc3C(N)=O)cc21` [Example 182, 3-(((1R,2S)-2-aminocyclohexyl)amino)-5-((1-methyl-1H-indazol-6-yl)amino)-1,2,4-triazine-6-carboxamide], for which the IC50 is less than 1 nM. `CC[C@@H](Nc1nnc(C(N)=O)c(Nc2ccc3c(c2)c(C#N)cn3C)n1)C(N)=O` [Example 183, (R)-3-((1-amino-1-oxobutan-2-yl)amino)-5-((3-cyano-1-methyl-1H-indol-5-yl)amino)-1,2,4-triazine-6-carboxamide]: the IC50 was less than 1 nM. Under `Cn1ncc2ccc(Nc3nc(N[C@H](CC(F)F)C(N)=O)nnc3C(N)=O)cc21` [Example 184, (R)-3-((1-amino-4,4-difluoro-1-oxobutan-2-yl)amino)-5-((1-methyl-1H-indazol-6-yl)amino)-1,2,4-triazine-6-carboxamide] stands less than 1 nM; under `NC(=O)c1nnc(N[C@H](CC(F)F)C(N)=O)nc1Nc1cc(Cl)c2ncccc2c1` [Example 185, (R)-3-((1-amino-4,4-difluoro-1-oxobutan-2-yl)amino)-5-((8-chloroquinolin-6-yl)amino)-1,2,4-triazine-6-carboxamide], 1 to 10 nM; under `COc1cc(Nc2nc(N[C@H](CC(C)C)C(N)=O)nnc2C(N)=O)ccn1` [Example 186, (R)-3-(1-amino-4-methyl-1-oxopentan-2-ylamino)-5-(2-methoxypyridin-4-ylamino)-1,2,4-triazine-6-carboxamide], 10 to 100 nM. In the case of `COC[C@@H](Nc1nnc(C(N)=O)c(Nc2ccc(C)cc2)n1)C(N)=O` [Example 187, (R)-3-(1-amino-3-methoxy-1-oxopropan-2-ylamino)-5-(p-tolylamino)-1,2,4-triazine-6-carboxamide], the IC50 fell in the range of 100 to 1000 nM. Take `Cc1ccc(Nc2nc(N[C@H](Cc3cccs3)C(N)=O)nnc2C(N)=O)cc1` [Example 188, (R)-3-(1-amino-1-oxo-3-(thiophen-2-yl)propan-2-ylamino)-5-(p-tolylamino)-1,2,4-triazine-6-carboxamide]: the IC50 fell in the range of 10 to 100 nM.
